Laboratory results as given in patent US7053121B2, “Compositions and methods for regulating circadian rhythms” (priority 2001, dated 2006).

Assays:
[1] = test system: Gal4DBD fusions of CLOCK and MOP4 with VP16 fusions of nuclear receptors; assay: Mammalian two-hybrid analysis in CV-1 cells; type: cell-based, human; settings: ligand 1 μM, FIG. 1B
Procedure: NIH 3T3 cells were seeded at 20,000 cells/well in a 48-well dish and transfected by FuGENE™ liposome-mediated transfer (Roche Molecular Biochemicals, Indianapolis, Ind.) with internal control pRLSV40 (5 ng), pGL3M34 reporter, CMX-MOP4 (100 ng) or CMX-CLOCK (100 ng) and CMX-BMAL1 (100 ng) in the presence or absence of CMX-RXRα or CMX-RARα (25–100 ng). CMX-MOP4ΔAAA (100 ng), pCDNA3.1MOP4Δ727 (100 ng), pCDNA3.1MOP4Δ624 (100 ng), and CMX-MOP4Δ635–645 (100 ng) were used instead of CMXMOP4 where indicated. The amount of DNA in each transfection was kept constant by addition of empty pCDNA3 vector. […] Forty-eight hours post-transfection, cells were harvested to determine luciferase activity by luminometry (Dual-Luciferase® Reporter Assay System, Promega Corporation, Madison, Wis.). The procedure for mammalian two-hybrid analysis was identical except that CV-1 cells were used. MH100TK-LUC (100 ng) reporter, CMX-Gal4DBD-MOP4 (20 ng), CMX-Gal4DBD-CLOCK (20 ng) in the presence of, CMX-VP16-PPARγ (20 ng), CMX-VP16-RARα (20 ng), CMX-VP16-TRβ (20 ng), CMX-RXRα (20 ng) or CMX-VP16-PPARα (20 ng). […] For all the figures, each value is the mean of three independent experiments +/− standard error. Each experiment included six replicates from a single assay.

[2] = test system: interaction between MOP4 and CLOCK with RXRα and RARα; settings: YRG2 cells, ligand 1 μM, FIG. 1A
Procedure: A liquid β-galactosidase activity assay was utilized to assess the effect of ligands on these novel interactions.
The library was prepared by ligating XhoI/EcoRI-adapted, phosphorylated, oligo-dT-primed cDNA, prepared from polyadenylated RNA extracted from 1×10^8 human aortic vascular smooth muscle cells (Cambrex Corporation, East Rutherford, N.J.), into the HybriZAP® II vector and packaged with Gigapack® III Gold packaging extract (Stratagene, La Jolla, Calif.) into a primary lambda library. […] RXRα-interacting clones were selected on media lacking tryptophan, leucine, and histidine, supplemented with 10 mM 3-amino-triazol.

CLOCK and RARα = target: T1, CLOCK and RARα (Homo sapiens, UniProt P10276); assay: In vitro immunoprecipitation of CLOCK and RARα; type: binding; settings: in vitro translated proteins, incubation in presence of retinoic acid
T1 construct: made in house; host or cells: coupled in vitro transcription-translation (labelled protein); E. coli BL21(DE3) (purified protein, inferred)
T1 sequence (P10276 1-462): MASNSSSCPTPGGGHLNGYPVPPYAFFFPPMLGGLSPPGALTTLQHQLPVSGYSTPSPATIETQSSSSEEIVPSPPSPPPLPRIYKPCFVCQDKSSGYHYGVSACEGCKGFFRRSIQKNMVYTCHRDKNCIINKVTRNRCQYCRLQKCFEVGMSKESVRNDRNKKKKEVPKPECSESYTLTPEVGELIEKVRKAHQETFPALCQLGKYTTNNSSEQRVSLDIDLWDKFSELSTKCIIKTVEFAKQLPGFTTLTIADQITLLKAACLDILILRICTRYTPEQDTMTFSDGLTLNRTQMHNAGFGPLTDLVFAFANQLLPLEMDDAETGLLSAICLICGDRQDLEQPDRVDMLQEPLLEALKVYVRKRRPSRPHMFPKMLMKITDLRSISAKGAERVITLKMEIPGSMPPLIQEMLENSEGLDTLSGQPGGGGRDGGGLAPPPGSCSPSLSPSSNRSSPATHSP
T1 sequence (O15516 1-846 partner): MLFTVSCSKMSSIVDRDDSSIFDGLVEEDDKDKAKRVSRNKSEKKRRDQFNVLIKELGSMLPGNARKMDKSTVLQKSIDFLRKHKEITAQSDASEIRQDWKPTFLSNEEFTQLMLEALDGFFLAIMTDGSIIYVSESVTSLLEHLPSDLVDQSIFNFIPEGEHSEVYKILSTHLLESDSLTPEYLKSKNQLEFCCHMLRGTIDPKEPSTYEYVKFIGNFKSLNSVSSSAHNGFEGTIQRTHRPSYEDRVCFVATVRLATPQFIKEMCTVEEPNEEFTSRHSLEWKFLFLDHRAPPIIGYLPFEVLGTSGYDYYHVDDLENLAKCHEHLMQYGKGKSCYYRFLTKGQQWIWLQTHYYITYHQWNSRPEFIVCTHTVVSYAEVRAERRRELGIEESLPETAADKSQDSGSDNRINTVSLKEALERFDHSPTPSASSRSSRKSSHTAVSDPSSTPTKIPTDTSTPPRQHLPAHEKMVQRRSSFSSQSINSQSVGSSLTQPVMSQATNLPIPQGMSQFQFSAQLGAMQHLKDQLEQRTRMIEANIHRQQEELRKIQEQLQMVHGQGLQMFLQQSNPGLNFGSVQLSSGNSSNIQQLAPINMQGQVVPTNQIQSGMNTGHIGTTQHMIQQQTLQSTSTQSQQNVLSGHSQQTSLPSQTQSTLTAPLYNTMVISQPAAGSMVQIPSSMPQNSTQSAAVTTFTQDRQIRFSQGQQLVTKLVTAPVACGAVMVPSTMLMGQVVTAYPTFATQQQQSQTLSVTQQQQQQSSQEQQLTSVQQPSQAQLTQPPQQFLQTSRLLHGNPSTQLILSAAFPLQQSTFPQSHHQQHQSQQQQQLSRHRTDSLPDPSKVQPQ
Procedure: [^35S]Methionine-labeled RARα and CLOCK were incubated with purified CLOCK and RARα protein, respectively for 30 min. at room temperature in the presence or absence of tRA. The complex was immunoprecipitated using anti-CLOCK and anti-RAR antibodies (Santa Cruz Biotechnology, Inc., Santa Cruz, Calif.) and protein A-agarose (Gibco, Carlsbad, Calif.) was added. Beads were washed extensively and bound proteins separated by SDS-PAGE and analyzed by a PhosphorImager.

[3] = test system: hPER2 transcript oscillation in VSMC; assay: Serum shock and ribonuclease protection analysis of hPER2 mRNA in VSMC; type: cell-based, human
Procedure: In these experiments, it was determined that oscillating clock gene expression could be induced by serum shock in VSMC as had been reported in Rat and 3T3 fibroblasts (Balsalobre, et al. (1998) Cell 93:929–937; Akashi, et al. (2000) Genes Dev. 14:645–649). Following addition of 50% serum for two hours, hPER2 mRNA peaks very rapidly at T4 (fours hours after serum shock) and enters a cyclical expression pattern, peaking at T24 and T48 (FIG. 5A). Adding tRA at T17 and leaving it in the culture for the remainder of the experiment, delayed the peak of hPER2 mRNA from T24 to T28. […] When tRA was added at T17 and removed at T19, the first hPER2 peak was again delayed to T28. However, the drop in hPER2 levels was followed by an increase, resulting in a second cycle which peaked at T52 (FIG. 5C). Thus, tRA phase delayed the hPER oscillation by four hours, which is consistent with the observation that ligand-bound RARα prevents CLOCK:BMAL1 heterodimer from activating transcription through its E-box. Removal of the ligand restored the ability of the CLOCK:BMAL1 heterodimer to induce hPER2 expression, but the phase of the cycle was delayed.
The coincidental circadian variability of catecholamines and blood pressure (Hossmann, et al. (1980) Cardiovasc. Res. 14:125–129) led to the investigation of whether catecholamines can phase-shift a core clock oscillator in VSMC. Norepinephrine and epinephrine (10 μM), were added at T16 and left in the culture until T18. This phase advanced the hPER2 mRNA peak to T20 instead of T24 (FIG. 5D).
VSMC (3500 cells/cm^2) were plated on 10 cm^2 plates 6 days before the experiment and were serum-starved for 48 hours after reaching confluence. Serum shock was carried out using 50% fetal bovine serum (Gibco, Carlsbad, Calif.) as previously described (Balsalobre, et al. (1998) Cell 93:929–937) and cells were harvested at the indicated time points and stored at −80° C. Total RNA was extracted from each sample using the RNAwiz™ reagent (Ambion, Austin, Tex.). […] RNA (5 μg) from each time point was hybridized for 16 hour with 8×10^4 cpm of the probe at 42° C. and digested with RNaseA/T1 (SequaGel System, National Diagnostics, Atlanta, Ga.), dried and analyzed by a PhosphorImager. The data was quantitated using ImageQuant version 1.2 software (Amersham Pharmacia Molecular Dynamics, Piscataway, N.J.) All results represent a mean of at least two independent experiments and are expressed as the ratio of the MOP4 or PER2 signal divided by the Actin signal at the same time point.

CC1=C(/C=C/C(C)=C/C=C/C(C)=C/C(=O)O)C(C)(C)CCC1 [tRA, all-trans retinoic acid]
interaction of MOP4 and CLOCK with RXRα and RARα [1]: ligand-dependent manner
strength of the interaction between MOP4 and CLOCK with RARα [2]: increase the strength of the interaction
association of CLOCK and RARα (coimmunoprecipitation) (CLOCK and RARα): increase in association
hPER2 transcript oscillation ([3]; addition at T17, FIG. 5B): delayed
hPER2 transcript oscillation ([3]; addition at T17 and removal at T19, FIG. 5C): altered
phase delay of the hPER oscillation ([3]; tRA added at T17): four
subsequent hPER2 levels ([3]; tRA added at T17 and left in culture, FIG. 5B): dropped and did not peak again

CC1=C(/C=C/C(C)=C\C=C\C(C)=C\C(=O)O)C(C)(C)CCC1 [9cisRA, 9-cis-retinoic acid]
interaction of MOP4 and CLOCK with RXRα and RARα [1]: ligand-dependent manner
